Measurements from patent US20230263822A1, “MODULATION OF FACTOR 11 EXPRESSION” (Ionis Pharmaceuticals, Inc., priority 2008, published 2023).
Strand notation (5' to 3'): a small letter for the sugar, then the base; units joined by * are phosphorothioate-linked, units joined directly phosphodiester-linked; [ ] holds rarer units or linkages, { } end groups; capitals alone tell only the bases. e = 2'-O-(2-methoxyethyl) (MOE); [5mC] = 5-methylcytosine; d = 2'-deoxy (DNA)

Experiments:
[1] = parameters: species or system CD1 mice; conditions: mouse, in vivo, sc, 50 mg/kg
Description: The concentration of the full-length oligonucleotide was measured. The method used is a modification of previously published methods (Leeds et al., 1996; Geary et al., 1999) which consist of a phenol-chloroform (liquid-liquid) extraction followed by a solid phase extraction. An internal standard (ISIS 355868, a 27-mer 2′-O-methoxyethyl modified phosphorothioate oligonucleotide, […], designated herein as SEQ ID NO: 270) was added prior to extraction. […] The results are presented in Table 85 expressed as μg/g liver tissue.

Factor 11 mRNA = Factor 11 mRNA in cynomolgus monkey liver, day 85 (Example 45); format: in vivo; conditions: cynomolgus monkeys, s.c. escalating doses 5-25 mg/kg over 12 weeks
Description: Groups, each consisting of two male and three female monkeys, were injected subcutaneously with ISIS 416838, ISIS 416850, ISIS 416858, ISIS 416864, or ISIS 417002 in escalating doses. Antisense oligonucleotide was administered to the monkeys at 5 mg/kg three times per a week for week 1; 5 mg/kg twice per week for weeks 2 and 3; 10 mg/kg three times per week for week 4; 10 mg/kg twice per week for weeks 5 and 6; 25 mg/kg three times per week for week 7; and 25 mg/kg twice per week for weeks 8, 9, 10, 11, and 12. One control group, consisting of two male and three female monkeys, was injected subcutaneously with PBS according to the same dosing regimen. An additional experimental group, consisting of two male and three female monkeys, was injected subcutaneously with ISIS 416850 in a chronic, lower dose regimen. Antisense oligonucleotide was administered to the monkeys at 5 mg/kg three times per week for week 1; 5 mg/kg twice per week for week 2 and 3; 10 mg/kg three times per week for week 4; and 10 mg/kg twice per week for weeks 5 to 12. Body weights were measured weekly. Blood samples were collected 14 days and 5 days before the start of treatment and subsequently once per week for Factor 11 protein activity analysis in plasma, fibrinogen measurement, PT and aPTT measurements, bleeding times, and measurement of various hematologic factors. On day 85, the monkeys were euthanized by exsanguination while under deep anesthesia, and organs harvested for further analysis.
On day 85, RNA was extracted from liver tissue for real-time PCR analysis of Factor 11 using primer probe set LTS00301 (forward primer sequence […], designated herein as SEQ ID NO 271; reverse primer sequence […], designated herein as SEQ ID NO: 272; and probe sequence TGCAGGCACAGCATCCCAGTGTTCTX, designated herein as SEQ ID NO. 273). Results are presented as percent inhibition of Factor 11, relative to PBS control.

human Factor 11 mRNA = assay: Dose-dependent inhibition of human Factor 11 in cyano primary hepatocytes, electroporation (Example 6); format: cell-based; conditions: ~16 hours
Description: Cells were plated at a density of 35,000 cells per well and transfected via electroporation with 0.74 nM, 2.2 nM, 6.7 nM, 20 nM, 60 nM, and 180 nM concentrations of antisense oligonucleotide, as specified in Table 13. After a treatment period of approximately 16 hours, RNA was isolated from the cells and human Factor 11 mRNA levels were measured by quantitative real-time PCR. Human Factor 11 primer probe set RTS 2966 was used to measure mRNA levels. Factor 11 mRNA levels were adjusted according to total RNA content, as measured by RIBOGREEN. Results are presented as percent inhibition of human Factor 11, relative to untreated control cells.

blood coagulation = assay: PT and aPTT assay in cynomolgus monkeys (Example 46); format: in vivo; conditions: platelet poor plasma, relative to PBS group
Description: Groups, each consisting of two male and two female monkeys, were injected subcutaneously with 25 mg/kg of ISIS 416850, ISIS 449709, ISIS 445522, ISIS 449710, ISIS 449707, ISIS 449711, ISIS 449708, 416858, and ISIS 445531. Antisense oligonucleotide was administered to the monkeys at 25 mg/kg three times per week for week 1 and 25 mg/kg twice per week for weeks 2 to 8. A control group, consisting of two male and two female monkeys was injected subcutaneously with PBS according to the same dosing regimen. Body weights were taken 14 days and 7 days before the start of treatment and were then measured weekly throughout the treatment period. Blood samples were collected 14 days and 5 days before the start of treatment and subsequently several times during the dosing regimen for PT and aPTT measurements, and measurement of various hematologic factors. On day 55, the monkeys were euthanized by exsanguination while under deep anesthesia, and organs harvested for further analysis.
PT and aPTT were measured using platelet poor plasma (PPP) from […] treated with ISIS oligonucleotides. PT and aPTT values are provided in Tables 148 and 149 and are reported as International Normalized Ratio (INR) values. INR values for PT and aPTT were determined by dividing the PT or aPTT value for each experimental group by the PT or aPTT for the PBS treated group. This ratio was then raised to the power of the International Sensitivity Index (ISI) of the tissue factor used. […] Therefore, antisense reduction of Factor 11 with these ISIS oligonucleotides is useful for inhibiting the formation of a thrombus or clot in response to an abnormal vessel wall, but not in response to tissue injury.

[2] = Tolerability in Sprague-Dawley rats: body weight and organ weight (Example 44); format: in vivo; conditions: 50 mg/kg s.c. twice per week for 6 weeks; for Change in Kidney weight / Change in Liver weight / Change in Spleen weight: end of study

In the case of “412223 (antisense ACAGTTTCTGGCAGGCCTCG; 5-10-5 MOE gapmer, further chemistry not given here) [compound 412223]”, the “Half-Life in the liver” value [1] was 21.9 days.

With “412224 (antisense GCATTGGTGCACAGTTTCTG; 5-10-5 MOE gapmer, further chemistry not given here) [compound 412224]” the “Half-Life in the liver” value [1] was 16.6 days.

With “412225 (antisense GCAGCGGACGGCATTGGTGC; 5-10-5 MOE gapmer, further chemistry not given here) [compound 412225]” the “Half-Life in the liver” value [1] was 20.7 days.

In the case of “413482 (antisense GGACGGCATTGGTGCACAGT; 5-10-5 MOE gapmer, further chemistry not given here) [compound 413482]”, the “Half-Life in the liver” value [1] was 19.5 days.

For “416838 (antisense GCAACCGGGATGATGAGTGC; 5-10-5 gapmer, further chemistry not given here) [compound 416838]”, the “% inhibition of Factor 11 mRNA in the cynomolgus monkey liver relative to the PBS control” value (Factor 11 mRNA) was 37%, the “percent inhibition of human Factor 11 mRNA relative to untreated control cells” value (human Factor 11 mRNA; 0.74 nM) was 0% and the “percent inhibition of human Factor 11 mRNA relative to untreated control cells” value (human Factor 11 mRNA; 2.2 nM) was 0%. For the same substance, the “percent inhibition of human Factor 11 mRNA relative to untreated control cells” value (human Factor 11 mRNA; 6.7 nM) was 21%, the “percent inhibition of human Factor 11 mRNA relative to untreated control cells” value (human Factor 11 mRNA; 20 nM) was 34% and the “percent inhibition of human Factor 11 mRNA relative to untreated control cells” value (human Factor 11 mRNA; 60 nM) was 48%. For the same substance, the “percent inhibition of human Factor 11 mRNA relative to untreated control cells” value (human Factor 11 mRNA; 180 nM) was 62%.

In the case of “416850 (antisense TGCACAGTTTCTGGCAGGCC; 5-10-5 gapmer, further chemistry not given here) [compound 416850]”, the “% inhibition of Factor 11 mRNA in the cynomolgus monkey liver relative to the PBS control” value (Factor 11 mRNA) was 84%, the “percent inhibition of human Factor 11 mRNA relative to untreated control cells” value (human Factor 11 mRNA; 0.74 nM) was 2% and the “percent inhibition of human Factor 11 mRNA relative to untreated control cells” value (human Factor 11 mRNA; 2.2 nM) was 20%. The “percent inhibition of human Factor 11 mRNA relative to untreated control cells” value (human Factor 11 mRNA; 6.7 nM) was 24%, the “percent inhibition of human Factor 11 mRNA relative to untreated control cells” value (human Factor 11 mRNA; 20 nM) was 65% and the “percent inhibition of human Factor 11 mRNA relative to untreated control cells” value (human Factor 11 mRNA; 60 nM) was 69%. For the same substance, the “percent inhibition of human Factor 11 mRNA relative to untreated control cells” value (human Factor 11 mRNA; 180 nM) was 67%.

For “416856 (antisense GGCATTGGTGCACAGTTTCT; 5-10-5 gapmer, further chemistry not given here) [compound 416856]”, the “Half-Life in the liver” value [1] was 19.2 days.

For “416858 (antisense ACGGCATTGGTGCACAGTTT; 5-10-5 gapmer, further chemistry not given here) [compound 416858]”, the “% inhibition of Factor 11 mRNA in the cynomolgus monkey liver relative to the PBS control” value (Factor 11 mRNA) was 90%, the “percent inhibition of human Factor 11 mRNA relative to untreated control cells” value (human Factor 11 mRNA; 0.74 nM) was 2% and the “percent inhibition of human Factor 11 mRNA relative to untreated control cells” value (human Factor 11 mRNA; 2.2 nM) was 13%. For the same substance, the “percent inhibition of human Factor 11 mRNA relative to untreated control cells” value (human Factor 11 mRNA; 6.7 nM) was 22%, the “percent inhibition of human Factor 11 mRNA relative to untreated control cells” value (human Factor 11 mRNA; 20 nM) was 44% and the “percent inhibition of human Factor 11 mRNA relative to untreated control cells” value (human Factor 11 mRNA; 60 nM) was 63%. For the same substance, the “percent inhibition of human Factor 11 mRNA relative to untreated control cells” value (human Factor 11 mRNA; 180 nM) was 68%.

With “ISIS 449710: 3-8-3, 4-8-4, 2-10-2, 3-10-3 or 4-10-4 MOE microwalk gapmer (Table 46) (antisense e[5mC]*eA*e[5mC]*dA*dG*dT*dT*dT*d[5mC]*dT*dG*dG*d[5mC]*eA*eG*eG)” the “PT ratio (INR)” value (blood coagulation; Day 10) was 0.98, the “aPTT ratio relative to PBS group” value (blood coagulation; Day 10) was 1.00 and the “PT ratio (INR)” value (blood coagulation; Day 17) was 1.00. The “aPTT ratio relative to PBS group” value (blood coagulation; Day 17) was 0.97, the “PT ratio (INR)” value (blood coagulation; Day 24) was 0.97 and the “aPTT ratio relative to PBS group” value (blood coagulation; Day 24) was 1.00. The “PT ratio (INR)” value (blood coagulation; Day 31) was 0.98, the “aPTT ratio relative to PBS group” value (blood coagulation; Day 31) was 1.04 and the “PT ratio (INR)” value (blood coagulation; Day 38) was 0.99. For the same substance, the “aPTT ratio relative to PBS group” value (blood coagulation; Day 38) was 1.02, the “PT ratio (INR)” value (blood coagulation; Day 45) was 0.97 and the “aPTT ratio relative to PBS group” value (blood coagulation; Day 45) was 1.06. The “PT ratio (INR)” value (blood coagulation; Day 52) was 0.98, the “aPTT ratio relative to PBS group” value (blood coagulation; Day 52) was 1.03 and the “PT ratio (INR)” value (blood coagulation; Day 55) was 1.06. For the same substance, the “aPTT ratio relative to PBS group” value (blood coagulation; Day 55) was 1.07, the “PT ratio (INR)” value (blood coagulation; Day −5) was 0.96 and the “aPTT ratio relative to PBS group” value (blood coagulation; Day −5) was 0.98. The “PT ratio (INR)” value (blood coagulation; Day −14) was 1.03, the “aPTT ratio relative to PBS group” value (blood coagulation; Day −14) was 1.07 and the body weight [2] was 344 g. The “Change in Kidney weight” value [2] was “+50%”, the “Change in Liver weight” value [2] was “+82%” and the “Change in Spleen weight” value [2] was “+302%”.

For “ISIS 449711: 3-8-3, 4-8-4, 2-10-2, 3-10-3 or 4-10-4 MOE microwalk gapmer (Table 46) (antisense eA*e[5mC]*dA*dG*dT*dT*dT*d[5mC]*dT*dG*dG*d[5mC]*eA*eG)”, the “PT ratio (INR)” value (blood coagulation; Day 10) was 0.94, the “aPTT ratio relative to PBS group” value (blood coagulation; Day 10) was 0.92 and the “PT ratio (INR)” value (blood coagulation; Day 17) was 0.95. The “aPTT ratio relative to PBS group” value (blood coagulation; Day 17) was 0.90, the “PT ratio (INR)” value (blood coagulation; Day 24) was 0.94 and the “aPTT ratio relative to PBS group” value (blood coagulation; Day 24) was 0.92. For the same substance, the “PT ratio (INR)” value (blood coagulation; Day 31) was 0.98, the “aPTT ratio relative to PBS group” value (blood coagulation; Day 31) was 0.89 and the “PT ratio (INR)” value (blood coagulation; Day 38) was 1.02. For the same substance, the “aPTT ratio relative to PBS group” value (blood coagulation; Day 38) was 0.93, the “PT ratio (INR)” value (blood coagulation; Day 45) was 1.01 and the “aPTT ratio relative to PBS group” value (blood coagulation; Day 45) was 0.94. The “PT ratio (INR)” value (blood coagulation; Day 52) was 1.00, the “aPTT ratio relative to PBS group” value (blood coagulation; Day 52) was 0.92 and the “PT ratio (INR)” value (blood coagulation; Day 55) was 1.07. For the same substance, the “aPTT ratio relative to PBS group” value (blood coagulation; Day 55) was 0.96, the “PT ratio (INR)” value (blood coagulation; Day −5) was 0.95 and the “aPTT ratio relative to PBS group” value (blood coagulation; Day −5) was 0.96. For the same substance, the “PT ratio (INR)” value (blood coagulation; Day −14) was 1.00, the “aPTT ratio relative to PBS group” value (blood coagulation; Day −14) was 0.94 and the body weight [2] was 362 g. The “Change in Kidney weight” value [2] was “+72%”, the “Change in Liver weight” value [2] was “+52%” and the “Change in Spleen weight” value [2] was “+327%”.
